Source: paper PMC8348310, “Antioxidants Isolated from Elaeagnus umbellata (Thunb.) Protect against Bacterial Infections and Diabetes in Streptozotocin-Induced Diabetic Rat Model” (Molecules, 2021)

What was measured:
[1] = system: Staphylococcus aureus; test: Agar well diffusion, zone of inhibition; assay type: cell-based; details: 37 °C, 24 h
Method: The antibacterial activity of the isolated compounds (morin, phloroglucinol, and 1-hexyl benzene) was determined using agar well diffusion method. Muller–Hinton agar media was prepared and autoclaved at 15 lbs pressure for 20 min and cooled to 45 °C. […] The entire wells were filled with 100 µL of the isolated compounds (stock solution: 1 mg/mL) using microtiter-pipette and allowed to diffuse at room temperature for 2 h. The plates were incubated at 37 °C for 24 h. In the center hole, Imipenem was added which served as positive control. Simultaneous, addition of an equal concentration of DMSO solvent instead of isolated compounds was used as blank. After incubation, the zones of inhibition were measured in millimeters (mm) and mean values were calculated. The experiments were performed in triplicates.

[2] = system: Salmonella typhi; test: Agar well diffusion, zone of inhibition; assay type: cell-based; details: Salmonella enterica, TYPHI, 24 h
[3] = system: Pseudomonas aeruginosa; test: Agar well diffusion, zone of inhibition; assay type: cell-based; details: 37 °C, 24 h
Method: (§1) Antibacterial potential of isolated compound was investigated against both Gram-positive and Gram-negative bacterial strains; Escherichia coli, Bacillus cereus, Salmonella typhi, Klebsiella pneumonia, Pseudomonas aeruginosa and Proteus mirabilis. Bacterial strains were provided by the Department of Pharmacy, University of Malakand, Khyber Pakhtunkhwa, Pakistan, and were kept at 4 °C in agar slants in freeze-dried condition until further use.
(§2) Both Gram-positive and Gram-negative bacterial strains Escherichia coli, Bacillus cereus, Salmonella typhi, Klebsiella pneumonia, Pseudomonas aeruginosa and Proteus mirabilis organism viable count per mL in the stock suspension was determined using surface viable counting technique. About 10^8–10^9 colony-forming units (CFU) per mL were used as inoculum in subsequent experiments. A fresh stock suspension was used each time.
(§3) The antibacterial activity of the isolated compounds (morin, phloroglucinol, and 1-hexyl benzene) was determined using agar well diffusion method. Muller–Hinton agar media was prepared and autoclaved at 15 lbs pressure for 20 min and cooled to 45 °C. The standard bacterial stock suspension 10^8–10^9 CFU/mL were spread on Muller–Hinton agar plates and five wells (3 mm in diameter; four on side and one in center) were punched in plates using a sterile cork borer. The entire wells were filled with 100 µL of the isolated compounds (stock solution: 1 mg/mL) using microtiter-pipette and allowed to diffuse at room temperature for 2 h. The plates were incubated at 37 °C for 24 h. In the center hole, Imipenem was added which served as positive control. Simultaneous, addition of an equal concentration of DMSO solvent instead of isolated compounds was used as blank. After incubation, the zones of inhibition were measured in millimeters (mm) and mean values were calculated. The experiments were performed in triplicates.

[4] = system: Escherichia coli; test: Agar well diffusion, zone of inhibition; assay type: cell-based; details: 37 °C, 24 h
Method: as §1, §2, §3

[5] = system: Klebsiella pneumonia; test: Agar well diffusion, zone of inhibition; assay type: cell-based; details: Klebsiella pneumoniae, 37 °C, 24 h
Method: as §1, §2, §3

[6] = system: Bacillus cereus; test: Agar well diffusion, zone of inhibition; assay type: cell-based; details: 37 °C, 24 h
Method: as §1, §2, §3

[7] = system: Proteus mirabilis; test: Agar well diffusion, zone of inhibition; assay type: cell-based; details: 37 °C, 24 h
Method: as §1, §2, §3

[8] = target: T1, Type-VI α-amylase (porcine pancreas) (Sus scrofa, UniProt P00690); test: In vitro α-amylase inhibition assay (DNSA); assay type: biochemical; details: read-out: % α-Amylase Inhibition Mean ± SEM
T1 construct: purchased Sigma Aldrich (Darmstadt, Germany); host or cells: porcine pancreas
T1 sequence (P00690 16-511): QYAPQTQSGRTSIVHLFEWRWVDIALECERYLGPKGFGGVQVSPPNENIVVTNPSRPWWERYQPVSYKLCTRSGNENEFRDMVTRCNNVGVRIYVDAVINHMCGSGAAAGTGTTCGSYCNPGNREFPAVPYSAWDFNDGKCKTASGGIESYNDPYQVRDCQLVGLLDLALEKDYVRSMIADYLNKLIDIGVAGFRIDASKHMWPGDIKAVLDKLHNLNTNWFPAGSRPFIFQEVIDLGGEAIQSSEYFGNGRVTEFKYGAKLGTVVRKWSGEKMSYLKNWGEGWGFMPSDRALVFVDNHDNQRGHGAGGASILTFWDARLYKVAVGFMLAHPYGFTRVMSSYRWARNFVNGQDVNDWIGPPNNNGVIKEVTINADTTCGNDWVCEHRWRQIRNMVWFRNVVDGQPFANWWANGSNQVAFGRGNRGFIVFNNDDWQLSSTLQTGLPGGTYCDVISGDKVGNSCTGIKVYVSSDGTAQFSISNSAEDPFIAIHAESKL
Method: The α-amylase inhibition activity of morin was assessed using 3, 5-dinitrosalicylic acid (DNSA) assay. Morin, phloroglucinol, and 1-hexyl benzene were dissolved in mixture of 10% DMSO, 0.02M Na2HPO4/NaH2PO4 buffer, and 0.006M NaCl (pH 6.9) and finally dilutions (31.05, 62.5, 125, 250, 500 and 1000 µg/mL) were prepared. In total, 200 μL α-amylase (2 units/mL) was mixed with 200 μL morin and incubated at 30 °C for 10 min. After that, 200 μL starch (1%) was added to each serial dilution and incubated for 3 min. To stop the reaction 200 μL sodium potassium tartrate tetrahydrate reagent, 2M NaOH, and […] DNSA (96mM) reagent were added to the reaction mixture. The reaction mixtures were boiled for 10 min at 85–90 °C in a water bath. After cooling the mixture was diluted with 5mL distilled water and finally at 540 nm absorbance was recorded. A blank solution was prepared containing only isolated compound morin but no enzyme. […] The α-amylase enzyme inhibitory activity was calculated by the following Equation (2): (2) % α − amylase Inhibition =control absorbance−sample absorbance/control absorbance×100
(§4) All the in vitro and in vivo experiments were analyzed in three replicates and determined as mean ± SEM. Student’s t-test and one way ANOVA followed by Dunnett’s post hoc multiple comparison test was used. p ≤ 0.05 were considered as significant. Linear regression analysis was used to calculate the IC50 value for % DPPH, ABTS, α-amylase, and α-glucosidase inhibition against the different concentrations of the test samples by means of Excel program 2007.

[9] = target: Type-I α-glucosidase (Baker Yeast) (Saccharomyces cerevisiae, UniProt P53341); test: In vitro α-glucosidase inhibition assay (PNPG); assay type: biochemical
Chain of Type-I α-glucosidase (Baker Yeast) (P53341 whole entry): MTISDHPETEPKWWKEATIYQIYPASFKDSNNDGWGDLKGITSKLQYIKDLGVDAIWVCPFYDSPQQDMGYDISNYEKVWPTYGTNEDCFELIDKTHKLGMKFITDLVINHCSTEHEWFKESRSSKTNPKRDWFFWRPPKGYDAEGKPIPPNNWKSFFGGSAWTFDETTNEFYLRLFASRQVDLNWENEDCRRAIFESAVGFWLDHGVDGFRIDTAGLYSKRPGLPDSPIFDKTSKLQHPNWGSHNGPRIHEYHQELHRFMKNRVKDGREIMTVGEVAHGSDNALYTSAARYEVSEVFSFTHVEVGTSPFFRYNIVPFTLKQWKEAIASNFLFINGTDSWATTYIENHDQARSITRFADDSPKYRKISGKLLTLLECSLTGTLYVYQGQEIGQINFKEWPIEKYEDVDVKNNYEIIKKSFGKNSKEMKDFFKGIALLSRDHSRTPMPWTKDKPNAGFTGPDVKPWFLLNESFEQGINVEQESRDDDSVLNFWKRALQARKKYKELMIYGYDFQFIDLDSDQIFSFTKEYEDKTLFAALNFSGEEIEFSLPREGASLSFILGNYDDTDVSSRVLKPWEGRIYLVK
Excerpt: Chemicals such as Tween-80 (Scharlau-chem., Barcelona, Spain), normal saline solution (Utsoka Pharma, Las Bela Baluchistan, Pakistan), lipid profile tests kits (Human, Hamburg, Germany), renal profile tests kits, and antioxidant enzymes kits (Biomed: Germany; diagnostic) were used in in vivo study. Mueller Hinton (MH) agar and broth (Merck, Modderfontein, South Africa) were used to culture the bacterial strains. Various solvents such as methanol, n-hexane, ethyl acetate, and chloroform (Merck, Darmstadt, Germany) were also used in this study.
The α-glucosidase inhibition potential of morin was determined according to the reported method with minor changes. The reaction mixture was prepared by taking 100 μL α-glucosidase (0.5 unit/mL), 600 μL phosphate buffer (0.1 M; pH 6.9), and 50 μL of isolated compounds (morin, phloroglucinol, and 1-hexyl benzene) with serial dilutions of 31.05, 62.5, 125, 250, 500 and 1000 µg/mL. All the reaction mixtures were incubated at 37 °C for 15 min. The enzymatic reactions were started by adding 100 μL substrate (p-nitro-phenyl-α-D-glucopyranoside) solution (5 mM) formed in phosphate buffer (0.1 M; pH 6.9), finally incubated at 37 °C for 15 min. The reaction was completed by adding sodium carbonate (400 μL; 0.2 M) solution and then at 405 nm absorbance was measured. The blank solution was prepared containing only isolated compounds without α-glucosidase. Percent α-glucosidase inhibition potential was calculated using Equation (3): (3) % α − glucosidase Inhibition =control absorbance−sample absorbance/control absorbance×100
as §4

[10] = system: STZ-induced diabetic rats; test: STZ-induced diabetic rat model: fasting blood glucose and body weight; assay type: in vivo, Sprague Dawley adult albino rats; details: vs diabetic control rats
Method: Sprague Dawley adult albino rats (body weight range = 170–200 g) were used in in vivo studies. The animals were purchased from Rifah Institute of Pharmaceutical Sciences Islamabad. The entire animals were given food and fresh water ad libitum. The animals were adjusted at room temperature around 22–25 °C. The animals were housed three rats per cage and maintained with light/dark cycle of about 12 h. All the in vivo procedures were carried out according to the ARRIVE guidelines and approval was taken from the Departmental Animal Ethical Committee (DAEC/2019/1), University of Malakand.
(§5) All the animals were separated into nine groups having eight animals each (Table 1). In the current investigational study STZ-induced diabetic model was used to evaluate the anti-hyperglycemic and anti-hyperlipidemic activity of isolated compound morin in chronic multiple dose experiment. All the animals were treated with their respective treatments for 21 days starting daily at 09:00 am. The fasting blood glucose levels were determined at 0, 4th, 7th, 10th, 15th, and 21st days with glucometer from the tail vein. Changes in the body weight were recorded for untreated control, diabetic, and treated groups in fasting condition from day 1 to day 21 of experimental period and are presented as % increase in body weight.
(§6) According to the reported protocol diabetes was induced into Sprague Dawley adult albino rats by intraperitoneal injection of STZ (50 mg/kg body weight). Blood samples were collected from the tail vein through glucometer strips by means of SD glucometer and the level of blood glucose was measured 72 h after STZ injection. Normal control groups were given normal saline (8 mL/kg, p.o.) as a vehicle, while isolated compound morin to the treatment groups from 3 days after STZ administration for 3 weeks. Animals with blood glucose levels higher than 300 mg/dL were considered diabetic. During the experiment the blood glucose level and body weights were measured.

[11] = system: STZ-induced diabetic rats; test: STZ-induced diabetic rat model: serum biochemical parameters (liver, renal, lipid profile, HbA1c); assay type: in vivo, Sprague Dawley adult albino rats
Method: as §5, §6
On 21st day of in vivo antidiabetic activity, all the animals were anesthetized by intraperitoneal (IP) injection of pentobarbital sodium (35 mg/kg body weight) and euthanized by means of cervical decapitation according to the ARRIVE guidelines. Blood samples were collected by cardiac puncture and transferred to EDTA containing tubes. Blood was centrifuged at 3500 rpm for 10 min for the separation of serum. Biochemical parameters like serum alkaline phosphatase (ALP), serum glutamate pyruvate transaminase (SGPT), serum glutamate oxaloacetate transaminase (SGOT) and lipid parameters like total cholesterol (TC), triglycerides (TG), low-density lipoproteins (LDL), high-density lipoprotein (HDL), and serum creatinine in serum were assessed by using Biochemistry analyzer (PS-520; Shenzhen Procan Electronics-China) using diagnostic kits (Reactivos, GPL Barcelona, Spain). According to the reported protocol an enzyme-linked immunosorbent assay (ELISA) kit was used to evaluate the level of glycosylated hemoglobin (HbA1c).

[12] = system: STZ-induced diabetic rats; test: Pancreas histopathological assessment (H & E); assay type: in vivo, Sprague Dawley adult albino rats; details: glibenclamide 5 mg/kg
Excerpt: For histopathological assessment, the pancreas tissues were removed immediately and washed with cold saline solution to remove the blood. Finally, the pancreas portions were fixed in 10% formalin, dehydrated with mixture of ethanol/xylene and then fixed with paraffin. Staining of tissue slides was done with hematoxylin and eosin (H & E) dye through automatic slide stainer (Sakura Tissue-Tek® DRS™ 2000; Tokyo, Japan). According to the reported assay, the stained slides were observed under microscope to see any variation in pancreatic tissue architecture of STZ-induced diabetic group and treated (glibenclamide/morin) groups.

[13] = glibenclamide 0.5 mg/kg, morin 15, 30, and 50 mg/kg, vs diabetic control rats
[14] = glibenclamide 5 mg/kg, morin 15, 30, and 50 mg/kg body weight, serum, day 21, vs diabetic control

Compound: C[C@@H](O)[C@H]1C(=O)N2C(C(=O)O)=C(SCCN=CN)C[C@H]12 [Imipenem, reference compound]
- zone of inhibition at 100 µg/mL [1]: 25 ± 0.3 mm
- zone of inhibition at 100 µg/mL [2]: 33 ± 0.1 mm
- zone of inhibition at 100 µg/mL [3]: 27 ± 1.1 mm
- zone of inhibition at 100 µg/mL [4]: 33 ± 0.2 mm
- zone of inhibition at 100 µg/mL [5]: 29 ± 0.5 mm
- zone of inhibition at 100 µg/mL [6]: 30 ± 0.5 mm
- zone of inhibition at 100 µg/mL [7]: 30 ± 0.5 mm

Compound: C[C@H]1O[C@H](O[C@H]2[C@H](O)[C@@H](O)[C@@H](O[C@H]3[C@H](O)[C@@H](O)C(O)O[C@@H]3CO)O[C@@H]2CO)[C@H](O)[C@@H](O)[C@@H]1N[C@H]1C=C(CO)[C@@H](O)[C@H](O)[C@H]1O (stereo partly shown) [Standard acarbose, acarbose, reference compound]
- inhibition at 31.05 µg/mL [8]: 48 ± 0.4%
- inhibition at 62.5 µg/mL [8]: 62 ± 0.5%
- inhibition at 125 µg/mL [8]: 69 ± 0.5%
- inhibition at 250 µg/mL [8]: 75 ± 1.1%
- inhibition at 500 µg/mL [8]: 83 ± 0.5%
- inhibition at 1000 µg/mL [8]: 90 ± 0.5%
- % α-Glucosidase Inhibition Mean ± SEM ([9]; 31.05 µg/mL): 60 ± 0.4%
- % α-Glucosidase Inhibition Mean ± SEM ([9]; 62.5 µg/mL): 68 ± 0.5%
- % α-Glucosidase Inhibition Mean ± SEM ([9]; 125 µg/mL): 71 ± 0.5%
- % α-Glucosidase Inhibition Mean ± SEM ([9]; 250 µg/mL): 77 ± 1.0%
- % α-Glucosidase Inhibition Mean ± SEM ([9]; 500 µg/mL): 82 ± 0.4%
- % α-Glucosidase Inhibition Mean ± SEM ([9]; 1000 µg/mL): 89 ± 0.5%

Compound: COc1ccc(Cl)cc1C(=O)NCCc1ccc(S(=O)(=O)NC(=O)NC2CCCCC2)cc1 [glibenclamide, reference compound]
- body weight ([10]; glibenclamide 0.5 mg/kg, p.o.): significantly (p < 0.001) reversed the diabetes-induced decrease in body weight
- fasting glucose level ([10]; glibenclamide 5 mg/kg body weight, day 21): significantly (p < 0.001) decreased
- HDL cholesterol [11, 13]: significantly increased (p < 0.01)
- HbA1c level [11, 13]: significant decrease (p < 0.01; p < 0.001)
- LDL level [11, 13]: significant decrease (p < 0.01; p < 0.001)
- TC level [11, 13]: significant decrease (p < 0.01; p < 0.001)
- TG level [11, 13]: significant decrease (p < 0.01; p < 0.001)
- serum creatinine level ([11]; glibenclamide 5 mg/kg, morin 15, 30, and 50 mg/kg body weight, day 21, vs diabetic control): significantly reduced (p < 0.01; p < 0.001)
- ALP level [11, 14]: significantly reduced (p < 0.01; p < 0.001)
- SGOT level [11, 14]: significantly reduced (p < 0.01; p < 0.001)
- SGPT level [11, 14]: significantly reduced (p < 0.01; p < 0.001)
- pancreas histopathology [12]: did not show any violation from the normal histological pattern
